According to paper PMC8956739, “A synthetic lipopeptide targeting top-priority multidrug-resistant Gram-negative pathogens” (Nature Communications, 2022):
Converted amounts (≈) assume the structure as drawn. “And” between values parts separate entries of the source, which are not always exact repeats. Identical values can stand only once. Like-named read-outs stand apart in the source and are kept apart here. Residues, ends and D or L forms follow the SMILES beside them.

How the values were obtained:
[1] = system: P. aeruginosa ATCC 27853; test: Neutropenic mouse bloodstream infection model; format: in vivo; details: single IV dose 4 mg/kg; for Log10 CFU/mL blood at 4 h, Mean / Δlog10 CFU/mL blood (mean) / Log10 CFU/mL blood at 4 h, single mouse: 4 h; for Δlog10 CFU/mL blood (mean): treated minus control, mean of replicates; for Delta Log10 CFU/mL blood at 4 h, single mouse: treated mouse minus mean of vehicle mice
Outline: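 Female Swiss mice made neutropenic with cyclophosphamide (150 mg/kg day −4, 100 mg/kg day −1), infected IV with 50 µL of 4 × 10^8 CFU/mL. Lipopeptide 4 mg/kg (free base) IV at 2 h post-inoculation, n = 3. Efficacy = Δlog10 CFU/mL blood versus saline at 4 h post-dose.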

[2] = system: K. pneumoniae FADDI-KP065; format: cell-based, Klebsiella pneumoniae
Outline: (§1)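 Cation-adjusted Mueller–Hinton broth was used with the broth microdilution method to set MICs against clinical isolates. A separate run on P. aeruginosa ATCC 27853 added 10% Survanta® (v/v, 2.5 mg/mL phospholipids) to gauge lung-surfactant binding of polymyxins.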

[3] = system: K. pneumoniae FADDI-KP032; format: cell-based, Klebsiella pneumoniae
Outline: as §1

[4] = system: A. baumannii ATCC 19606; format: cell-based, Acinetobacter baumannii
Outline: (§2)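 Broth microdilution, CaMHB; MIC read as the antibacterial endpoint against ATCC reference strains and clinical isolates.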

[5] = system: A. baumannii FADDI-AB034; format: cell-based, Acinetobacter baumannii
Outline: as §1

[6] = system: A. baumannii FADDI-AB030; format: cell-based, Acinetobacter baumannii
Outline: as §1

[7] = Acute toxicity in mice (maximum tolerated dose, IV bolus); format: in vivo, mouse; details: mouse, in vivo, iv, single IV bolus dose, replicates 1-4; read-out: MTD, single replicate
Experimental: (§3) Lipopeptide solutions were prepared in 0.9% saline and stored at 4 °C before use. Swiss mice (female, 7-week-old, 22–28 g) were used in the study. A mouse was administered an intravenous bolus of the lipopeptide (mg/kg free base) through a lateral tail vein (≤0.1 mL). After the injection, the mouse was released back into the cage and monitored for clinical signs of toxicity from 0 to 24 h after injection as follows: every 10 min in the first 2 h, every half hour from 2 to 4 h, every hour from 4 to 12 h, and every 2 h from 12 to 24 h.

[8] = system: Swiss mice; test: as above; format: in vivo, mouse; details: replicates 1-4
Experimental: as §3

[9] = system: Swiss mice, kidney; test: Nephrotoxicity in mice (kidney histopathology); format: in vivo, mouse; details: for Kidney histopathology (SQS Score): 72 mg/kg/d subcutaneously in six divided doses every 2 h, n = 3; for Kidney histopathology, mice with the SQS score: mouse, in vivo
Outline: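 Female Swiss mice (7-week-old, 22–28 g) received lipopeptides in saline either s.c. at 12 mg/kg ×6 every 2 h (total 72 mg/kg, n = 3) or i.p. at 20 or 25 mg/kg ×6 every 2 h (total 120 mg/kg, n = 6; 150 mg/kg, n = 3). Right kidney collected 20 h after last dose, fixed in 10% buffered formalin (pH 7.4), histology scored blinded.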

[10] = system: P. aeruginosa ATCC 27853; format: cell-based, Pseudomonas aeruginosa
Outline: as §2

[11] = system: P. aeruginosa FADDI-PA025; format: cell-based, Pseudomonas aeruginosa
Outline: as §1

[12] = system: P. aeruginosa FADDI-PA038; format: cell-based, Pseudomonas aeruginosa
Outline: as §1

[13] = system: human subjects; details: in vivo; cited from earlier work

Compound | Log10 CFU/mL blood at 4 h, Mean [1] [Log10 CFU/mL blood] | Log10 CFU/mL blood at 4 h, single mouse ([1]; 4 mg/kg) | Delta Log10 CFU/mL blood at 4 h, single mouse ([1]; 4 mg/kg) | MIC K. pneumoniae FADDI-KP065 ([2]; FADDI-KP065) [µg/mL] | MIC K. pneumoniae FADDI-KP032 ([3]; FADDI-KP032) [µg/mL] | MIC A. baumannii ATCC 19606 ([4]; ATCC 19606) [µg/mL] | MIC A. baumannii FADDI-AB034 ([5]; FADDI-AB034) [µg/mL] | MIC A. baumannii FADDI-AB030 ([6]; FADDI-AB030) [µg/mL] | MTD [7] [mg/kg] | MTD, single replicate [8] | Kidney histopathology (SQS Score) [9] | Kidney histopathology, mice with the SQS score [9] | MIC P. aeruginosa ATCC 27853 ([10]; ATCC 27853) [µg/mL] | MIC, No Survanta ([10]; ATCC 27853) [µg/mL] | MIC P. aeruginosa FADDI-PA025 ([11]; FADDI-PA025) [µg/mL] | MIC P. aeruginosa FADDI-PA038 ([12]; FADDI-PA038) [µg/mL] | Δlog10 CFU/mL blood (mean) ([1]; 4 mg/kg) [log10 CFU/mL blood] | other results
CCCCCC(=O)N[C@@H](CCN)C(=O)N[C@H](C(=O)N[C@@H](CN)C(=O)N[C@H]1CCNC(=O)[C@H]([C@@H](C)O)NC(=O)[C@H](CCN)NC(=O)[C@H](CCN)NC(=O)[C@H](CC)NC(=O)[C@@H](CC(C)C)NC(=O)[C@H](CCN)NC1=O)[C@@H](C)O [Lipopeptide F342] (HELM PEPTIDE1{[CCCCCC(=O)[*:2]].[Dab].T.[NC[C@H](N[*:1])C(=O)[*:2]].[Dab].[Dab].[dL].[Abu].[Dab].[Dab].T}$PEPTIDE1,PEPTIDE1,5:R3-11:R2$$$V2.0) | 7.44 | 7.29 Log10 CFU/mL blood and 7.60 Log10 CFU/mL blood | 0.0179 Log10 CFU/mL blood and 0.33 Log10 CFU/mL blood | 0.5 (≈ 0.461 µM) | 0.25 (≈ 0.23 µM) | 2 (≈ 1.84 µM) | 1 (≈ 0.921 µM) | 1 (≈ 0.921 µM) | 20 | 18.4 mg/kg | 0 (SQS 0 = no significant change (overall score, <1)) | 3/3 | 0.5 (≈ 0.461 µM) | 1 (≈ 0.921 µM) | 2 (≈ 1.84 µM) | 1 (≈ 0.921 µM) | – | Δlog10 CFU/mL blood (mean) [1]: 0.17 log10 CFU/mL blood
CC[C@@H]1NC(=O)[C@@H](CC(C)C)NC(=O)[C@H](CCN)NC(=O)[C@@H](NC(=O)[C@H](CN)NC(=O)[C@@H](NC(=O)[C@H](CCN)NC(=O)c2ccccc2)[C@@H](C)O)CCNC(=O)[C@H]([C@@H](C)O)NC(=O)[C@H](CCN)NC(=O)[C@H](CCN)NC1=O [Lipopeptide F379] (HELM PEPTIDE1{[O=C(c1ccccc1)[*:2]].[Dab].T.[NC[C@H](N[*:1])C(=O)[*:2]].[Dab].[Dab].[dL].[Abu].[Dab].[Dab].T}$PEPTIDE1,PEPTIDE1,5:R3-11:R2$$$V2.0) | 5.27 | 5.36 Log10 CFU/mL blood and 5.17 Log10 CFU/mL blood | -2.58 Log10 CFU/mL blood and -2.77 Log10 CFU/mL blood | – | – | – | – | – | 26 | 23 mg/kg and 21.3 mg/kg and 16 mg/kg | – | – | – | – | – | – | −2.67 | MIC K. pneumoniae FADDI-KP065 ([2]; carbapenem-resistant isolate): 2 µg/mL (≈ 1.83 µM); MIC K. pneumoniae FADDI-KP032 ([3]; carbapenem-resistant isolate): 2 µg/mL (≈ 1.83 µM); MIC A. baumannii ATCC 19606 [4]: 8 µg/mL (≈ 7.33 µM); MIC A. baumannii FADDI-AB034 ([5]; carbapenem-resistant isolate): 8 µg/mL (≈ 7.33 µM); MIC A. baumannii FADDI-AB030 ([6]; carbapenem-resistant isolate): 2 µg/mL (≈ 1.83 µM); MIC P. aeruginosa ATCC 27853 [10]: 1 µg/mL (≈ 0.916 µM); MIC P. aeruginosa FADDI-PA025 ([11]; MDR clinical isolate): >32 µg/mL; MIC P. aeruginosa FADDI-PA038 ([12]; carbapenem-resistant isolate): 4 µg/mL (≈ 3.67 µM)
CC[C@@H]1NC(=O)[C@@H](CC(C)C)NC(=O)[C@H](CCN)NC(=O)[C@@H](NC(=O)[C@H](CN)NC(=O)[C@@H](NC(=O)[C@H](CCN)NC(=O)c2cc(Cl)cc(Cl)c2)[C@@H](C)O)CCNC(=O)[C@H]([C@@H](C)O)NC(=O)[C@H](CCN)NC(=O)[C@H](CCN)NC1=O [Lipopeptide F381] (HELM PEPTIDE1{[O=C(c1cc(Cl)cc(Cl)c1)[*:2]].[Dab].T.[NC[C@H](N[*:1])C(=O)[*:2]].[Dab].[Dab].[dL].[Abu].[Dab].[Dab].T}$PEPTIDE1,PEPTIDE1,5:R3-11:R2$$$V2.0) | 4.49 | 4.47 Log10 CFU/mL blood and 4.87 Log10 CFU/mL blood and 4.12 Log10 CFU/mL blood | -3.47 Log10 CFU/mL blood and -3.07 Log10 CFU/mL blood and -3.82 Log10 CFU/mL blood | 0.5 (≈ 0.431 µM) | <0.125 | 0.5 (≈ 0.431 µM) | 0.25 (≈ 0.215 µM) | 0.25 (≈ 0.215 µM) | 5 | 4.7 mg/kg and 4 mg/kg | +1 (SQS + 1 = mild damage (overall score, 1 to <15)) | 1/3 | 0.25 (≈ 0.215 µM) | 0.5 (≈ 0.431 µM) | 0.5 (≈ 0.431 µM) | 1 (≈ 0.862 µM) | −3.45 | –
CC[C@@H]1NC(=O)[C@@H](CC(C)C)NC(=O)[C@H](CCN)NC(=O)[C@@H](NC(=O)[C@H](CN)NC(=O)[C@@H](NC(=O)[C@H](CCN)NC(=O)c2ccc(-c3ccccc3)cc2)[C@@H](C)O)CCNC(=O)[C@H]([C@@H](C)O)NC(=O)[C@H](CCN)NC(=O)[C@H](CCN)NC1=O [Lipopeptide F477] (HELM PEPTIDE1{[O=C(c1ccc(-c2ccccc2)cc1)[*:2]].[Dab].T.[NC[C@H](N[*:1])C(=O)[*:2]].[Dab].[Dab].[dL].[Abu].[Dab].[Dab].T}$PEPTIDE1,PEPTIDE1,5:R3-11:R2$$$V2.0) | 3.39 | 3.09 Log10 CFU/mL blood and 3.94 Log10 CFU/mL blood and 3.15 Log10 CFU/mL blood | -4.19 Log10 CFU/mL blood and -3.34 Log10 CFU/mL blood and -4.13 Log10 CFU/mL blood | 0.25 (≈ 0.214 µM) | 0.25 (≈ 0.214 µM) | 1 (≈ 0.857 µM) | 0.25 (≈ 0.214 µM) | 0.5 (≈ 0.428 µM) | 10 | 10.1 mg/kg and 11.1 mg/kg | +1 (SQS + 1 = mild damage (overall score, 1 to <15)) | 1/3 | 1 (≈ 0.857 µM) | 1 (≈ 0.857 µM) | 1 (≈ 0.857 µM) | 1 (≈ 0.857 µM) | −3.89 | –
SPR206 | – | – | – | – | – | – | – | – | – | – | – | – | – | – | – | – | – | single dose at which neurotoxicity was observed [13]: exceeding 200 mg
